Where a name gives a salt, the structure may show the parent alone. Read-outs that look alike come from different tables or passages of the source.
Target: CDK2/CCNE1 (Homo sapiens, UniProt P24941)
Test: CDK2 homogeneous time-resolved fluorescence (HTRF) assay
Type: biochemical
Conditions: 3 nM CDK2/CCNE1, 1 mM ATP, 50 nM ULight-eIF4E-binding protein 1 (Thr37/46) peptide, 60 min at 23° C.
Procedure: A CDK homogeneous time-resolved fluorescence (HTRF) assay was used to assess the potency of the compounds described herein.
To an untreated 384-well microtiter plate (ProxiPlate) was added 100 nL 100× test compound in DMSO and 5 μL 2×CDK enzyme in assay buffer (50 mM HEPES, 1 mM EGTA, 10 mM MgCl2, 0.01% Tween 20, 2 mM DTT). The plate was centrifuged at 800 RPM for 1 min then incubated for 20 min at 23° C. 2.5 μL per well of 4×ATP and 2.5 μL 4×ULight™-eIF4E-binding protein 1 (Thr37/46) Peptide) substrate were added to all wells. After addition, the plates were centrifuged at 800 RPM for 1 min. The plates were incubated at 23° C. for 60 min. 5 μL per well 3×EDTA solution were added to each well to stop the reaction. 2.5 μL 7×LANCE Ultra Europium-anti-phospho-eTF4E-binding protein 1 (Thr37/46 antibody) were added to each well and the plate was centrifuged for 1 min at 800 RPM. The plate was incubated for 60 min at 23° C. Fluorescence was read at 340 nm excitation and 665 nm emission on an EnVision 2105 fluorescence reader. The final concentrations of reagents in the activity assay were 3 nM CDK2/CCNE1, 1 mM ATP, 50 nM ULight™-eIF4E-binding protein 1 (Thr37/46) Peptide substrate, 1% DMSO, 10 mM EDTA, and 2 nM LANCE Ultra Europium-anti-phospho-eTF4E-binding protein 1 (Thr37/46).
Dose-response titrations were conducted by using an 11-point, three-fold serial dilution scheme typically starting at 1 μM. Signals were reported as fluorescence units at 665 nm or the ratio of fluorescence units at 665 nm/fluorescence units at 615 nm. Signals are referred to below as “Lance signals”.
Using this assay, the IC50 values of example compounds were determined.

[1] = column 25-150 nM, read-out: CDK2/CCNE IC50 25-150 nM
[2] = read-out: CDK2/CCNE IC50 >150 nM
[3] = read-out: CDK2/CCNE IC50 <25 nM

Row | SMILES | IC50 [1] | other results
1 | CS(=O)(=O)c1ccc(Nc2ncc3cnn(C[C@H]4CC[C@@H](CO)CC4)c3n2)cc1 [Compound 17] | 25 to 150 nM | 
2 | CS(=O)(=O)c1ccc(Nc2ncc3cnn(C[C@H]4CC[C@@H](C(=O)Oc5ccc(F)cc5)CC4)c3n2)cc1 [Compound 18, 4-Fluorophenyl (1s,4s)-4-((6-((4-(methylsulfonyl)phenyl)amino)-1H-pyrazolo[3,4-d]pyrimidin-1-yl)methyl)cyclohexane-1-carboxylate] |  | IC50 [2]: > 150 nM
3 | Cc1nn(CC2CCCCC2)c2nc(Nc3ccc(S(C)(=O)=O)cc3)ncc12 [Compound 19, 1-(cyclohexylmethyl)-3-methyl-N-(4-(methylsulfonyl)phenyl)-1H-pyrazolo[3,4-d]pyrimidin-6-amine] |  | IC50 [2]: > 150 nM
4 | OCc1cccc(Nc2ncc3cnn(CC4CCCCC4)c3n2)c1 [Compound 20, (3-((1-(cyclohexylmethyl)-1H-pyrazolo[3,4-d]pyrimidin-6-yl)amino)phenyl)methanol] |  | IC50 [3]: < 25 nM
5 | C=CS(=O)(=O)c1ncc(Nc2ncc3cnn(CC4CCCCC4)c3n2)cn1 [Compound 21, 1-(cyclohexylmethyl)-N-(2-(vinylsulfonyl)pyrimidin-5-yl)-1H-pyrazolo[3,4-d]pyrimidin-6-amine] | 25 to 150 nM | 
6 | OCCc1ccc(Nc2ncc3cnn(CC4CCCCC4)c3n2)cc1 [Compound 22, 2-(4-((1-(cyclohexylmethyl)-1H-pyrazolo[3,4-d]pyrimidin-6-yl)amino)phenyl)ethan-1-ol] | 25 to 150 nM | 
7 | C=CS(=O)(=O)c1ccc(Nc2ncc3cnn(CC4CCCCC4)c3n2)cc1C [Compound 23, 1-(cyclohexylmethyl)-N-(3-methyl-4-(vinylsulfonyl)phenyl)-1H-pyrazolo[3,4-d]pyrimidin-6-amine] | 25 to 150 nM | 
8 | OCc1ccc(Nc2ncc3cnn(CC4CCCCC4)c3n2)cc1 [Compound 24, (4-((1-(cyclohexylmethyl)-1H-pyrazolo[3,4-d]pyrimidin-6-yl)amino)phenyl)methanol] | 25 to 150 nM | 
9 | O=Cc1cccc(Nc2ncc3cnn(CC4CCCCC4)c3n2)c1 [Compound 26, 3-((1-(cyclohexylmethyl)-1H-pyrazolo[3,4-d]pyrimidin-6-yl)amino)benzaldehyde] |  | IC50 [3]: < 25 nM
10 | CS(=O)(=O)c1ccc(Nc2ncc3cnn(C[C@H]4CC[C@@H](C=O)CC4)c3n2)cc1 [Compound 27, (1s,4s)-4-((6-((4-(methylsulfonyl)phenyl)amino)-1H-pyrazolo[3,4-d]pyrimidin-1-yl)methyl)cyclohexane-1-carbaldehyde] | 25 to 150 nM | 
11 | C=C(C)S(=O)(=O)c1ccc(Nc2ncc3cnn(CC4CCCCC4)c3n2)cc1 [Compound 30, 1-(cyclohexylmethyl)-N-(4-(prop-1-en-2-ylsulfonyl)phenyl)-1H-pyrazolo[3,4-d]pyrimidin-6-amine] | 25 to 150 nM | 
12 | C=CS(=O)(=O)c1ncc(Nc2ncc3cnn(CC4CCCCC4)c3n2)cc1Cl [Compound 31, N-(5-chloro-6-(vinylsulfonyl)pyridin-3-yl)-1-(cyclohexylmethyl)-1H-pyrazolo[3,4-d]pyrimidin-6-amine] |  | IC50 [2]: > 150 nM
13 | C=CS(=O)(=O)c1ccc(Nc2ncc3cnn(CC4CCCCC4)c3n2)cn1 [Compound 34, 1-(cyclohexylmethyl)-N-(6-(vinylsulfonyl)pyridin-3-yl)-1H-pyrazolo[3,4-d]pyrimidin-6-amine] |  | IC50 [3]: < 25 nM
14 | OCCc1cccc(Nc2ncc3cnn(CC4CCCCC4)c3n2)c1 [Compound 35, 2-(3-((1-(cyclohexylmethyl)-1H-pyrazolo[3,4-d]pyrimidin-6-yl)amino)phenyl)ethan-1-ol] |  | IC50 [3]: < 25 nM
15 | C#CC(=O)c1ccc(Nc2ncc3cnn(CC4CCCCC4)c3n2)cc1 [Compound 38, 1-(4-((1-(cyclohexylmethyl)-1H-pyrazolo[3,4-d]pyrimidin-6-yl)amino)phenyl)prop-2-yn-1-one] |  | IC50 [2]: > 150 nM
16 | CS(=O)(=O)c1ccc(Nc2ncc3cnn(C4CC(=O)C4)c3n2)cc1 [Compound 39, 3-(6-((4-(methylsulfonyl)phenyl)amino)-1H-pyrazolo[3,4-d]pyrimidin-1-yl)cyclobutan-1-one] |  | IC50 [2]: > 150 nM
17 | CS(=O)(=O)c1ccc(Nc2ncc3cnn(C4CCC5(CC4)COC5)c3n2)cc1 [Compound 41, N-(4-(methylsulfonyl)phenyl)-1-(2-oxaspiro[3.5]nonan-7-yl)-1H-pyrazolo[3,4-d]pyrimidin-6-amine] | 25 to 150 nM | 
18 | C=CS(=O)(=O)c1ccc(Nc2ncc3cnn(CC4CCCCC4)c3n2)cc1C(F)(F)F [Compound 42, 1-(cyclohexylmethyl)-N-(3-(trifluoromethyl)-4-(vinylsulfonyl)phenyl)-1H-pyrazolo[3,4-d]pyrimidin-6-amine] | 25 to 150 nM | 
19 | CC#CS(=O)(=O)c1ccc(Nc2ncc3cnn(CC4CCCCC4)c3n2)cc1 [Compound 43, 1-(cyclohexylmethyl)-N-(4-(prop-1-yn-1-ylsulfonyl)phenyl)-1H-pyrazolo[3,4-d]pyrimidin-6-amine] |  | IC50 [2]: > 150 nM
20 | C=CC(=O)c1ccc(Nc2ncc3cnn(CC4CCCCC4)c3n2)cc1 [Compound 44, 1-(4-((1-(cyclohexylmethyl)-1H-pyrazolo[3,4-d]pyrimidin-6-yl)amino)phenyl)prop-2-en-1-one] |  | IC50 [2]: > 150 nM
21 | CN[C@H]1CC[C@@H](Cn2ncc3cnc(Nc4ccc(S(C)(=O)=O)cc4)nc32)CC1 [Compound 45, 1-(((1s,4s)-4-(methylamino)cyclohexyl)methyl)-N-(4-(methylsulfonyl)phenyl)-1H-pyrazolo[3,4-d]pyrimidin-6-amine] |  | IC50 [3]: < 25 nM
22 | CS(=O)(=O)c1ccc(Nc2ncc3cnn([C@@H]4CCC[C@@H](C#N)C4)c3n2)cc1 [Compound 46, (1R,3R)-3-(6-((4-(methylsulfonyl)phenyl)amino)-1H-pyrazolo[3,4-d]pyrimidin-1-yl)cyclohexane-1-carbonitrile] |  | IC50 [3]: < 25 nM
23 | CS(=O)(=O)c1ccc(Nc2ncc3cnn([C@@H]4CC[C@@H](C#N)C4)c3n2)cc1 [Compound 47, (1R,3R)-3-(6-((4-(methylsulfonyl)phenyl)amino)-1H-pyrazolo[3,4-d]pyrimidin-1-yl)cyclopentane-1-carbonitrile] |  | IC50 [2]: > 150 nM

Second part, led by results:

Row | IC50 [1] | SMILES | other results
24 | 25 to 150 nM | O=Cc1ccc(Nc2ncc3cnn(CC4CCCCC4)c3n2)cc1 [Compound 25, 4-((1-(cyclohexylmethyl)-1H-pyrazolo[3,4-d]pyrimidin-6-yl)amino)benzaldehyde] | 
25 | 25 to 150 nM | CS(=O)(=O)c1ccc(Nc2ncc3cnn(Cc4cccc5[nH]ccc45)c3n2)cc1 [Compound 29, 1-((1H-indol-4-yl)methyl)-N-(4-(methylsulfonyl)phenyl)-1H-pyrazolo[3,4-d]pyrimidin-6-amine] | 
26 | 25 to 150 nM | C=CS(=O)(=O)c1ccc(Nc2ncc3cnn(CC4CCCCC4)c3n2)cc1F [Compound 36, 1-(cyclohexylmethyl)-N-(3-fluoro-4-(vinylsulfonyl)phenyl)-1H-pyrazolo[3,4-d]pyrimidin-6-amine] | 
27 | 25 to 150 nM | C=CS(=O)(=O)c1c(F)cc(Nc2ncc3cnn(CC4CCCCC4)c3n2)cc1F [Compound 37, 1-(cyclohexylmethyl)-N-(3,5-difluoro-4-(vinylsulfonyl)phenyl)-1H-pyrazolo[3,4-d]pyrimidin-6-amine] | 
28 | 25 to 150 nM | CN(C)[C@H]1CC[C@@H](Cn2ncc3cnc(Nc4ccc(S(C)(=O)=O)cc4)nc32)CC1 [Compound 40, 1-(((1s,4s)-4-(dimethylamino)cyclohexyl)methyl)-N-(4-(methylsulfonyl)phenyl)-1H-pyrazolo[3,4-d]pyrimidin-6-amine formate] | 

From patent US20260306496A1, “CDK2 INHIBITOR PYRAZOLOPYRIMIDINE COMPOUNDS” (ALEKSIA THERAPEUTICS, INC., priority 2023, published 2026)
